Experimental data from patent publication US20250326748A1, “COMPOUNDS AND METHODS FOR MODULATING SPLICING” (REMIX THERAPEUTICS INC., priority 2022, published 2025).
Read-outs that look alike come from different tables or passages of the source.

How the values were obtained:
Target C mRNA = assay: Splicing RT-qPCR panel, Target C canonical junction (CJ) mRNA; format: cell-based, human; conditions: Homo sapiens, read-out: Target C CJ (decrease in CJ mRNA levels, IC50)
Summary of the method: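 A673 cells (DMEM, 10% FBS) or K562 cells (IMDM, 10% FBS) treated 24 h at 37 °C with an 11-point 3-fold dilution, top 10 uM, DMSO ≤0.25%. Canonical-junction mRNA quantified in lysates by RT-qPCR, normalised to GAPDH, GUSB or PPIA and to DMSO (2^−ΔΔCt), then converted to % response.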

MYB mRNA = assay: Splicing RT-qPCR assay, MYB canonical (CJ) and alternative (AJ) junction mRNA; format: cell-based, human; conditions: Homo sapiens; for IC50: canonical junction mRNA; for AC50: alternative junction mRNA, read-out: MYB AJ (AC50, increase in AJ mRNA)
Summary of the method: (§1)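 A673 cells (DMEM, 10% FBS) or K562 cells (IMDM, 10% FBS) were treated for 24 h at 37° C with an 11-point 3-fold dilution series, top dose 10 uM, DMSO ≤0.25%. Canonical and alternative junction mRNA was measured in lysates by one-step RT-qPCR. Normalization used PPIA for A673 and GAPDH or GUSB for K562.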

SMN2 mRNA = assay: Splicing RT-qPCR panel, SMN2 canonical junction (CJ) mRNA; format: cell-based, human; conditions: Homo sapiens, read-out: SMN2 CJ (decrease in CJ mRNA levels, IC50)
Description: Compounds described herein were used to modulate RNA transcript abundance in cells. The expression of a target mRNA was measured by detecting the formation of an exon-exon junction in the canonical transcript (CJ). A compound mediated exon-inclusion event was detected by observing an increase in formation of a new junction with an alternative exon (AJ). Real-time qPCR assays were used to detect these splicing switches and interrogate the potency of various compounds towards different target genes. A high-throughput real time quantitative PCR (RT-qPCR) assay was developed to measure these two isoforms of the mRNA (CJ and AJ) for exemplary genes, such as HTT, SMN2, and MYB, together with a control housekeeping gene, GAPDH or GUSB or PPIA, used for normalization. Briefly, the A673 or K562 cell line was treated with various compounds described herein (e.g., compounds of Formula (D). After treatment, the levels of the HTT, MYB, or SMN2 mRNA targets were determined from each sample of cell lysate by cDNA synthesis followed by qPCR.
The A673 cell line was cultured in DMEM with 10% FBS. Cells were diluted with full growth media and plated in a 96-well plate (15,000 cells in 100 ul media per well). The plate was incubated at 37° C. with 5% CO2 for 24 hours to allow cells to adhere. An 11-point 3-fold serial dilution of the compounds was made in DMSO then diluted in media in an intermediate plate. Compounds were transferred from the intermediate plate to the cell plate with the top dose at a final concentration of 10 uM in the well. Final DMSO concentration was kept at or below 0.25%. The cell plate was returned to the incubator at 37° C. with 5% CO2 for an additional 24 hours.
The K562 cell line was cultured in IMDM with 10% FBS. For K562, cells were diluted with full growth media and plated in either a 96-well plate (50,000 cells in 50 uL media per well) or a 384-well plate (8,000-40,000 cells in 45 uL media per well). An 11-point 3-fold serial dilution of the compounds were made in DMSO then diluted in media in an intermediate plate. Compound was transferred from the intermediate plate to the cell plate with the top dose at a final concentration of 10 uM in the well. Final DMSO concentration was kept at or below 0.25%. Final volume was 100 uL for 96-well plate and 50 uL for 384-well plate. The cell plate was then placed in an incubator at 37° C. with 5% CO2 for 24 hours.
The cells were then gently washed with 50 uL-100 uL cold PBS before proceeding to addition of lysis buffer. 30 uL-50 μL of room temperature lysis buffer with DNAse I (and optionally RNAsin) was added to each well. Cells were shaken/mixed thoroughly at room temperature for 5-10 minutes for lysis to take place and then 3 uL-5 μL of room temperature stop solution was added and wells were shaken/mixed again. After 2-5 minutes, the cell lysate plate was transferred to ice for RT-qPCR reaction setup. The lysates could also be frozen at −80° C. for later use.
In some cases, a direct lysis buffer was used. An appropriate volume of 3× lysis buffer (10 mM Tris, 150 mM NaCl, 1.5%-2.5% Igepal and 0.1-1 U/uL RNAsin, pH 7.4) was directly added to either K562 or A673 cells in media and mixed by pipetting 3 times. The plates were then incubated at room temperature with shaking/rocking for 20-50 minutes to allow for lysis to take place. After this time, the cell lysate plate was transferred to ice to set up for the RT-qPCR reactions. The lysates could also be frozen at −80° C. for later use.
To set up 10 uL RT-qPCR reactions, cell lysates were transferred to 384-well qPCR plates containing the master mix according to the table below. The plates were sealed, gently vortexed, and spun down before the run. The volumes were adjusted accordingly in some instances where the reaction was carried in 20 μL. The table below summarizes the components of the RT-qPCR reactions:
The RT-qPCR reaction was performed using a QuantStudio (ThermoFisher) under the following fast cycling conditions. […]

K562 cells = assay: Cell viability, Cell Titer Glo 2.0 assay, K562; conditions: 72 hours
HTT mRNA = assay: Splicing RT-qPCR assay, HTT canonical (CJ) and alternative (AJ) junction mRNA; format: cell-based, human; conditions: Homo sapiens; for IC50: canonical junction mRNA; for AC50: alternative junction mRNA, read-out: HTT AJ (AC50, increase in AJ mRNA)
Summary of the method: as §1

[1] = qPCR panel, read-out: MYB CJ (decrease in CJ mRNA levels, IC50)
[2] = RT-qPCR, A673 or K562 cells, 24 hours treatment
[3] = RT-qPCR, A673 or K562 cells, 24 hours treatment, read-out: MYB CJ (IC50, decrease in CJ mRNA)
[4] = 24 h, RT-qPCR, A673 or K562 cells, 24 hours treatment, read-out: HTT CJ (IC50, decrease in CJ mRNA)
[5] = qPCR panel, read-out: HTT CJ (decrease in CJ mRNA levels, IC50)

| SMILES | IC50 (Target C mRNA) [nM] | IC50 (MYB mRNA; [1]) [nM] | AC50 (MYB mRNA; [2]) [nM] | IC50 (MYB mRNA; [3]) [nM] | IC50 (SMN2 mRNA) [nM] | Effect on Cell Viability, K562 (K562 cells) | IC50 (HTT mRNA; [4]) [nM] | IC50 (HTT mRNA; [5]) [nM] | AC50 (HTT mRNA; [2]) [nM] |
| --- | --- | --- | --- | --- | --- | --- | --- | --- | --- |
| C[C@H]1CN(c2cnc3nc(-c4cc(F)c5nn(C)cc5c4)ccc3c2)CCN1 [Compound 373, 2-(7-fluoro-2-methylindazol-5-yl)-6-[(3S)-3-methylpiperazin-1-yl]-1,8-naphthyridine] | 1000 to 10000 | 100 to 1000 | 100 to 1000 | 100 to 1000 | < 100 | B (100-1000 nM) | 1000 to 10000 | 1000 to 10000 | 1000 to 10000 |
| C[C@H]1CN(c2cnc3nc(-c4cc5cn(C)nc5cc4O)cc(Cl)c3c2)CC2(CC2)N1 [Compound 379] | > 10000 | 100 to 1000 | 100 to 1000 | 100 to 1000 | < 100 | B (100-1000 nM) | 1000 to 10000 | 1000 to 10000 | 1000 to 10000 |
| Cc1c(O)c(-c2ccc3c(Cl)c(N4C[C@@H](C)N[C@@H](C)C4)cnc3n2)cc2cn(C)nc12 [Compound 390] | 1000 to 10000 | 100 to 1000 | < 100 | < 100 | < 100 | A (<100 nM) | 1000 to 10000 | 1000 to 10000 | > 10000 |
| Cc1c(O)c(-c2ccc3c(Cl)c(N4C[C@H](C)N[C@@H](C)C4)cnc3n2)cc2cn(C)nc12 [Compound 394] | 1000 to 10000 | < 100 | < 100 | < 100 | < 100 | B (100-1000 nM) | 100 to 1000 | 100 to 1000 | 100 to 1000 |
| C[C@H]1CN(c2cnc3nc(-c4cc(F)c5nn(C)cc5c4)cc(Cl)c3c2)CC2(CC2)N1 [Compound 396] | 1000 to 10000 | 100 to 1000 | 100 to 1000 | 100 to 1000 | < 100 | C (1000-9999 nM) | 1000 to 10000 | 1000 to 10000 | 1000 to 10000 |
| C[C@@H]1CN(c2cnc3nc(-c4cc(F)c5nn(C)cc5c4)cc(Cl)c3c2)CC2(CC2)N1 [Compound 397] | > 10000 | 100 to 1000 | 1000 to 10000 | 100 to 1000 | < 100 | C (1000-9999 nM) | 1000 to 10000 | 1000 to 10000 | > 10000 |
| Cc1c(O)c(-c2cc(Cl)c3cc(N4C[C@H](C)NC5(CC5)C4)cnc3n2)cc2cn(C)nc12 [Compound 398] | > 10000 | < 100 | < 100 | < 100 | < 100 | B (100-1000 nM) | 100 to 1000 | 100 to 1000 | 100 to 1000 |
| Cc1c(O)c(-c2cc(Cl)c3cc(N4C[C@@H](C)NC5(CC5)C4)cnc3n2)cc2cn(C)nc12 [Compound 399] | > 10000 | < 100 | < 100 | < 100 | < 100 | B (100-1000 nM) | 1000 to 10000 | 1000 to 10000 | > 10000 |
| Cc1cn2nc(-c3cc(Cl)c4cc(N5C[C@H](C)NC6(CC6)C5)cnc4n3)cc(C)c2n1 [Compound 400] | 1000 to 10000 | 100 to 1000 | 100 to 1000 | 100 to 1000 | < 100 | C (1000-9999 nM) | 1000 to 10000 | 1000 to 10000 | 1000 to 10000 |
| Cc1cn2cc(-c3cc(Cl)c4cc(N5C[C@H](C)NC6(CC6)C5)cnc4n3)cc(F)c2n1 [Compound 401] | 1000 to 10000 | 100 to 1000 | 100 to 1000 | 100 to 1000 | < 100 | C (1000-9999 nM) | 1000 to 10000 | 1000 to 10000 | 1000 to 10000 |
| Cc1cn2cc(-c3cc(Cl)c4cc(N5C[C@@H](C)NC6(CC6)C5)cnc4n3)cc(F)c2n1 [Compound 402] | > 10000 | 100 to 1000 | 100 to 1000 | 100 to 1000 | < 100 | C (1000-9999 nM) | > 10000 | > 10000 | > 10000 |
